Measured values reported in US20200138921A1, “METHODS OF PREVENTING AND TREATING DISEASES CHARACTERIZED BY SYNAPTIC DYSFUNCTION AND NEURODEGENERATION INCLUDING ALZHEIMER'S DISEASE” (The Trustees of Columbia University in the City of New York, priority 2017, published 2020).

Tests used:
[1] = system: amyloid plaques; assay: Amyloid plaque histology (6E10) in J20 mice; format: in vivo; settings: TOP treated J20 mice at 12.5 months of age vs J20 mice treated with PBS
Description: Immunolabeling was done on 30 μm brain sections from the J20 TOP treated mice and PBS treated wild-type and J20 mice. Staining was done using the anti-Aβ antibody 6E10 (Covance) and GFAP (Cell Signaling). Plaque load and astrocytosis were quantified using ImageJ. Total plaque area was expressed as a percentage of the total hippocampal area.

[2] = system: Ube3A; assay: Western blot of Ube3A protein in cultured primary hippocampal neurons; format: cell-based, rat
Experimental: (§1) Hippocampal neuron cultures from both male and female rat embryos (E17-18) were prepared following a slightly modified version of the method of Brewer et al. 1996. Hippocampal neurons were kept in culture at 37° C. with 5% CO2 in Neurobasal medium (ThermoFisher) with B27 (ThermoFisher) supplement and Glutamax (ThermoFisher) and plated at a density of 2.5×10^5 cell/ml on dishes coated with poly-D-lysine (ThermoFisher). For the experiments, neurons were used after 14-21 days in vitro (DIV). Rat neuroblastoma B35 cells were cultured and maintained in DMEM (ThermoFisher) supplemented with 10% fetal bovine serum (FBS; Invitrogen) and Glutamax (ThermoFisher).
(§2) Whole frozen mouse hippocampi, human brain specimens, and cultured cells were homogenized in RIPA buffer (ThermoFisher) supplemented with protease and phosphatase inhibitor cocktail (ThermoFisher), using a Teflon dounce homogenizer and centrifuged at 14,000 rpm for 10 minutes at 4° C. Supernatants were collected, normalized by BCA assay (ThermoFisher), and prepared for loading using sample buffer (SB) 4× (ThermoFisher) and dithiothreitol (DTT) 10× (ThermoFisher).
(§3) Cultured primary hippocampal neurons (14 DIV) were treated with 300 nM of a topoisomerase type I inhibitor, topotecan (TOP) or a vehicle control as described in Huang et al. 2012. Some cells were treated for 24 hours and some for 72 hours. All cells were harvested and whole cell lysates prepared for Western blot analysis of Ube3A and Ephixin-5.

[3] = system: Ephexin-5; assay: Western blot of Ephexin-5 in cultured primary hippocampal neurons; format: cell-based, rat
Experimental: as §1, §2, §3

[4] = system: primary hippocampal neurons; assay: Dendritic spine density in cultured hippocampal neurons (DiOlistic labeling); format: cell-based, rat; settings: oAβ for 24 hours
Experimental: The protocol for diolistic labeling of neurons was adapted from Gan et al. 2000 and Gan et al. 2009. Briefly, 100 mg of tungsten particles (1.1 μm diameter; Bio-Rad) were thoroughly precipitated with 5.0 mg of lipophilic dye (DiI; ThermoFisher) and dissolved in 100 μl of methylene chloride. Dye-coated particles were shot 2-3 times into the cells using the Helios gene gun system (Bio-Rad) and left in 0.1 M PBS overnight to allow dye diffusion along neuronal processes. Cells were post-fixed with 4% paraformaldehyde (Pierce) for 1 hour to preserve staining, then mounted onto glass slides using Gel Mount (Biomeda) and stored at 4° C. in the dark.
Labeled neurons were imaged using the Laser Scanning Microscope (LSM) 510 Meta confocal microscope (Zeiss), equipped with 40×1.3 NA and 100×1.4 NA oil-immersion objectives. The NIH Image software program ImageJ was used the quantify diolistic-labeled cultured neurons. An average of 12 compressed images (20 μm thick) consisting of pyramidal neurons were quantified for each treatment. Spines were counted with NeuronStudio software in a blinded manner and spine density was represented in number of spine per μm dendritic length. Statistical analysis was performed using the statistics package GraphPad Prism.
To further test whether increasing Ube3A could rescue the effects of oAβ, cultured primary hippocampal neurons (14 DIV) were pretreated with 300 nM of TOP or control PBS. The neurons were then treated with oAβ for 24 hours, and whole cell lysates prepared for Western blot analysis, or fixed for microscopy.

[5] = system: RhoA-GTP; assay: Rho-GTPase activity pull-down assay in hippocampal neurons; format: cell-based, rat
Experimental: Rho-GTPase pull-down assays were performed following the manufacturer's protocol (Cytoskeleton, Inc.). Briefly, cells were washed once with ice-cold PBS and lysed with RIPA/M-PER buffer (1:1; ThermoFisher). Lysates were incubated on ice for 5 minutes, and centrifuged (12,000 g) for 5 minutes. 30 μl was used for input and the remaining lysates were incubated with Rhotekin-RBD (RhoA) or PAK-RBD (Rac1) protein beads (25 μl) by rotating for 1 hour at 4° C. Beads were washed with ice-cold PBS (500 μl, 3×) and collected, and bound proteins were eluted with 1× sample buffer (30 μl). Input and eluted samples were then analyzed by gel electrophoresis and Western blotting using either a RhoA or Rac1-specific antibody.
To test whether increasing Ube3A could rescue the effects of oAβ, cultured primary hippocampal neurons (14 DIV) were pretreated with 300 nM of TOP or control PBS. At day 3 the cells were treated with oligomeric Aβ for 6 hours and whole cell lysates prepared for Western blot analysis of Ube3A protein levels and levels of active GTPase levels including RhoA-GTP, Rac1-GTP and Cdc42-GTP.

[6] = system: Ube3A mRNA; assay: qPCR of Ube3A mRNA in hippocampal neurons; format: cell-based, rat; settings: oAβ for 24 hours (results not shown)
Experimental: Neurons were lysed and total RNA was extracted using TRIzol reagent (Ambion) following the manufacturer's protocol. RNA concentration and purity were assessed by measuring the optical density at 260 and 280 nm with a NanoDrop (Thermo Scientific). cDNA was synthesized using the first-strand cDNA synthesis kit (Origene) with 1 μg of total RNA, following the manufacturer's instructions. Quantitative real-time PCR was performed using FastStart SYBR Green Master Mix (Roche) and an Eppendorf Realplex Mastercyler with the following cycle settings: 1 cycle at 95° C. for 10 min and 40 cycles of amplification, 95° C. for 15 s, 58-60° C. for 30-60 s, 72° C. for 30-60 s. The amounts of Ube3A mRNA were quantified and normalized to GAPDH mRNA using the following primer pairs: Ube3A forward 5′-[…]-3′ (SEQ ID NO: 3) and reverse 5′-[…]—3′ (SEQ ID NO: 4). The threshold cycles were determined and normalized to the threshold cycles of a GAPDH gene. Relative mRNAs levels for Ube3A were expressed as a fold induction in an experimental condition compared with a control condition.
In mammals, the Ube3A gene is subject to genomic imprinting, whereby only the maternal allele is expressed in neurons. The paternal allele is silenced through the expression of a Ube3A-antisense (Ube3A-ATS), transcribed as part of a large non-coding antisense transcript (Runte et al. 2001).

[7] = system: Arc; assay: Western blot of Arc in hippocampal neurons; format: cell-based, rat; settings: Aβ for 8-10 hours
Experimental: as §2
As observed in the Tg2576 mice hippocampi, the levels of Ube3A inversely correlated with the levels of Arc and Ephexin-5. To determine whether this correlation was also observed in hippocampal neurons, the cells were treated with Aβ for 8-10 hours, and whole cell lysates were collected for Western blot analysis.

[8] = neurons pretreated with 300 nM TOP, oligomeric Aβ for 6 hours at day 3
[9] = neurons 21 DIV, oAβ for 24 hours

| Molecule | accumulation of amyloid plaques [1] | Ube3A protein levels ([2]; neurons 14 DIV, 300 nM TOP, 24 or 72 hours, vs vehicle) | Ube3A protein levels [2, 8] | Ephexin-5 level ([3]; neurons 14 DIV, 300 nM TOP, vs vehicle) | protection against oAβ-induced loss of dendritic spine density ([4]; neurons pretreated with 300 nM TOP) | RhoA activity [5, 8] | levels of Ube3A protein [2, 9] | levels of Ephexin-5 protein ([3]; hippocampal neurons, Aβ for 8-10 hours) | levels of Ube3A mRNA [6] | levels of Arc protein [7] | dendritic spine density ([4]; neurons 21 DIV) | levels of active RhoA-GTP [5, 9] |
| --- | --- | --- | --- | --- | --- | --- | --- | --- | --- | --- | --- | --- |
| CC[C@@]1(O)C(=O)OCc2c1cc1n(c2=O)Cc2cc3c(CN(C)C)c(O)ccc3nc2-1 [TOP, topotecan] | approximately equal accumulation | increased as early as 24 hours and persisted up to three days | increased | significant decrease | complete protection | decreased | – | – | – | – | – | – |
| oAβ: synthetic soluble oligomeric Aβ1-42 | – | – | – | – | – | – | significant decrease | significant increase | did not show any differences | significant increase | significant decrease | significant increase |
